Blank lines part the entries; values can stand above or below the compound they belong to. The source made the active and inactive calls. The calls are words filed in the database; no cut-off is given here.
Experiments:
[1] = biological target: Rho-associated protein kinase 2 (Homo sapiens) (UniProt O75116); experiment: Inhibition of ROCK2 (unknown origin) at 200 uM using MYPT1 as substrate after 30 mins by immunoassay
Uterus [2] = experiment: Inhibition of oxytocin-induced uterus contraction in 20 days pregnant Sprague-Dawley rat at 10^-10 to 10^-5 M measured for 300 secs; assay type: functional, tissue-based
Uterus [3] = experiment: Inhibition of oxytocin-induced uterus contraction in Sprague-Dawley rat during parturition period at 10^-10 to 10^-5 M measured for 300 secs; assay type: functional, tissue-based
Uterus [4] = experiment: Inhibition of oxytocin-induced uterus contraction in non-pregnant Sprague-Dawley rat measured for 300 secs; assay type: functional, tissue-based

Rho-associated protein kinase 2 (Homo sapiens), sequence (O75116 whole entry, looked up): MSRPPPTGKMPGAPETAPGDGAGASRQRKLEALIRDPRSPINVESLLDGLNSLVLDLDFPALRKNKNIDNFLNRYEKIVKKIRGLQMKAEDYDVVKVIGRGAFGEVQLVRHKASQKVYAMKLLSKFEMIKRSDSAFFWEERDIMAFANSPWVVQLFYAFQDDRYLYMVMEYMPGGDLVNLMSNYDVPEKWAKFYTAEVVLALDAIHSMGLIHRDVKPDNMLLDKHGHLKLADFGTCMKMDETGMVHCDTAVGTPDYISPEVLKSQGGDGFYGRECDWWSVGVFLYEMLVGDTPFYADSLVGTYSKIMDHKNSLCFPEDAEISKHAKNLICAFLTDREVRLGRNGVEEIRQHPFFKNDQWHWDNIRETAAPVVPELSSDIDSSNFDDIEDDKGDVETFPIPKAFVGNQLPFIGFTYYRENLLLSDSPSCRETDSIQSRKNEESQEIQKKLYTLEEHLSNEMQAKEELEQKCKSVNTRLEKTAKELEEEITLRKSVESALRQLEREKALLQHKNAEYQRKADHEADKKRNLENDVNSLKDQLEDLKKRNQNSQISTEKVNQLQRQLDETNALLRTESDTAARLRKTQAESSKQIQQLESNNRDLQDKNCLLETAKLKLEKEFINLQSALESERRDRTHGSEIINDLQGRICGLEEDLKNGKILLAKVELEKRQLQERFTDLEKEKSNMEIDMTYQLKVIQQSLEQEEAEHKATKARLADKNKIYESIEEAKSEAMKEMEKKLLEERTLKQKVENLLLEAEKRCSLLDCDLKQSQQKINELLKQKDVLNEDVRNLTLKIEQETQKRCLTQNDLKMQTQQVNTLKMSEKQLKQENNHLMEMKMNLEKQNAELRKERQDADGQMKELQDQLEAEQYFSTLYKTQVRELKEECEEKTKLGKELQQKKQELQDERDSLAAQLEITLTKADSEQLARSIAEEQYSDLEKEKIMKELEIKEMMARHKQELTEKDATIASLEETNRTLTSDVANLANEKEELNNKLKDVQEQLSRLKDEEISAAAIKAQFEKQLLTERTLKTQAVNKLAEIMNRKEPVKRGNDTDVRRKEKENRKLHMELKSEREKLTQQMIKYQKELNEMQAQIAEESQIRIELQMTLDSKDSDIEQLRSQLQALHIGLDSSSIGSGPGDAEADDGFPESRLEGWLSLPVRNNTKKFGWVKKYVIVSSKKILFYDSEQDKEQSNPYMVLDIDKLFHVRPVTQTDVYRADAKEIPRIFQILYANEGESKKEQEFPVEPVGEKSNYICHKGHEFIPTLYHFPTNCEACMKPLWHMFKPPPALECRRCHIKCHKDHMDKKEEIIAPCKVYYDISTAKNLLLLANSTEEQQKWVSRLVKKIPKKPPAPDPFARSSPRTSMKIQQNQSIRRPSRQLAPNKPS

Compound: CCOc1ccc(CCN(CCO)C2CCCCC2O)cc1OCC (stereo not drawn)
ROCK2 inhibition activity call (active/not active) [1]: Active | inhibition (Uterus [2]): Active | inhibition (Uterus [3]): Active | Emax (Uterus [4]): 46.3% | IC50 (Uterus [4]): 41.8 nM

Compound: COc1ccc(Cc2nccc3cc(OC)c(OC)cc23)cc1OC [PAPAVERINE]
Emax (Uterus [4]): 98.5% | IC50 (Uterus [4]): 420 nM

Compound: COc1cc2c(cc1OC)C(C(CO)CO)N(C1CCCC1)CC2 (stereo not drawn)
ROCK2 inhibition activity call (active/not active) [1]: inactive | Emax (Uterus [4]): 54.5% | IC50 (Uterus [4]): 84.5 nM

Compound: COc1cc2c(cc1OC)C(C1CCc3nc(N4CCOCC4)[nH]c(=O)c3C1)=NCC2 (stereo not drawn)
ROCK2 inhibition activity call (active/not active) [1]: inactive | Emax (Uterus [4]): 47.3% | IC50 (Uterus [4]): 24.2 nM

Compound: CCOc1cc2c(cc1OCC)CN(C1CCCCC1O)CC2 (stereo not drawn)
ROCK2 inhibition activity call (active/not active) [1]: inactive | Emax (Uterus [4]): 48% | IC50 (Uterus [4]): 37.1 nM

Compound: C[C@@H](N)[C@H]1CC[C@H](C(=O)Nc2ccncc2)CC1 [Y-27632]
Emax (Uterus [4]): 82.3% | IC50 (Uterus [4]): 505 nM

Compound: COc1cc2c(cc1OC)C1CCO/C(=N\Cc3ccccc3)N1CC2 (stereo not drawn)
Emax (Uterus [4]): 55.1% | IC50 (Uterus [4]): 522 nM

Compound: C#CC[N+]12CCc3cc(OC)c(OC)cc3C1C(CO)C2 (stereo not drawn)
ROCK2 inhibition activity call (active/not active) [1]: inactive | Emax (Uterus [4]): 54.5% | IC50 (Uterus [4]): 32.2 nM

Compound: CCOc1ccc(/C=C2\NCCc3cc(OCC)c(OCC)cc32)cc1OCC [DROTAVERINE]
Emax (Uterus [4]): 88.8% | IC50 (Uterus [4]): 1940 nM

Compound: COc1ccc(CC[N+](C)(CCO)C2CCCCC2)cc1OC (stereo not drawn)
ROCK2 inhibition activity call (active/not active) [1]: inactive | Emax (Uterus [4]): 49.6% | IC50 (Uterus [4]): 18.9 nM

Compound: COc1ccc(CCNC2CCCCC2O)cc1OC (stereo not drawn)
ROCK2 inhibition activity call (active/not active) [1]: inactive | Emax (Uterus [4]): 51.7% | IC50 (Uterus [4]): 98.1 nM

Compound: CCOc1cc2c(cc1OCC)C1C(CO)CS/C(=N\c3ccc(C)cc3)N1CC2 (stereo not drawn)
Emax (Uterus [4]): 82.5% | IC50 (Uterus [4]): 1170 nM

Compound: COc1cc2c(cc1OC)C1(C)N(CC2)C(c2ccccc2)=NN1c1ccc(Cl)cc1 (stereo not drawn)
Emax (Uterus [4]): 53.2% | IC50 (Uterus [4]): 258 nM

Compound: COc1cc2c(cc1OC)C1C(C)CN1CC2 (stereo not drawn)
ROCK2 inhibition activity call (active/not active) [1]: inactive | Emax (Uterus [4]): 43.7% | IC50 (Uterus [4]): 8.24 nM

Compound: COc1ccc(CCNC(=O)C(C)(C)C)cc1OC
Emax (Uterus [4]): 52.8% | IC50 (Uterus [4]): 191 nM

Compound: COc1cc2c(cc1OC)C(C)N(C1CCCCC1O)CC2 (stereo not drawn)
ROCK2 inhibition activity call (active/not active) [1]: inactive | Emax (Uterus [4]): 45.6% | IC50 (Uterus [4]): 90.2 nM

Compound: O=S(=O)(c1cccc2cnccc12)N1CCCNCC1 [FASUDIL]
inhibition (Uterus [2]): Active | inhibition (Uterus [3]): Active | Emax (Uterus [4]): 87.4% | IC50 (Uterus [4]): 781 nM

Compound: COc1cc2c(cc1OC)C1C(CO)COC(=N)N1CC2 (stereo not drawn)
ROCK2 inhibition activity call (active/not active) [1]: inactive | Emax (Uterus [4]): 50.4% | IC50 (Uterus [4]): 13.3 nM

Compound: COc1cc2c(cc1OC)C(C(CO)Cc1ccccc1)NCC2 (stereo not drawn)
Emax (Uterus [4]): 76.6% | IC50 (Uterus [4]): 723 nM

Continued, in another order:

IC50 (Uterus [4]): 495 nM
Compound: COc1cc2c(cc1OC)C1C(COC(=O)Nc3ccccc3)CN1CC2 (stereo not drawn)
Emax (Uterus [4]): 54.5%

IC50 (Uterus [4]): 278 nM
Compound: COc1cc2c(cc1OC)C(C(CO)COC(=O)c1ccccc1)N(CCC#N)CC2 (stereo not drawn)
Emax (Uterus [4]): 53.3%

IC50 (Uterus [4]): 1080 nM
Compound: CCOc1cc2c(cc1OCC)C(CCO)N(C(=S)Nc1cccc(C(F)(F)F)c1)CC2 (stereo not drawn)
Emax (Uterus [4]): 84.7%

IC50 (Uterus [4]): 1250 nM
Compound: COc1cc2c(cc1OC)C(CC#N)N(C(=O)Nc1cccc(C(F)(F)F)c1)CC2 (stereo not drawn)
Emax (Uterus [4]): 72.2%

IC50 (Uterus [4]): 1190 nM
Compound: COc1cc2c(cc1OC)C(C(CO)COC(=O)c1ccccc1)N(C(=S)Nc1ccccc1)CC2 (stereo not drawn)
Emax (Uterus [4]): 83.5%

IC50 (Uterus [4]): 610 nM
Compound: COc1cc2c(cc1OC)C(c1ccccc1)N(C1CCCC1O)CC2 (stereo not drawn)
Emax (Uterus [4]): 58.8%

IC50 (Uterus [4]): 788 nM
Compound: COc1cc2c(cc1OC)C1C(Cc3ccccc3)CN1CC2 (stereo not drawn)
Emax (Uterus [4]): 57.2%

IC50 (Uterus [4]): 263 nM
Compound: COc1cc2c(cc1OC)C(C(CO)CO)N(C(=O)c1ccc(C(F)(F)F)cc1)CC2 (stereo not drawn)
Emax (Uterus [4]): 66.4%

ROCK2 inhibition activity call (active/not active) [1]: Active | IC50 (Uterus [4]): 158 nM
Compound: COc1cc2c(cc1OC)C(C(CO)CO)N(C(=S)Nc1ccccc1)CC2 (stereo not drawn)
inhibition (Uterus [2]): Active | inhibition (Uterus [3]): Active | Emax (Uterus [4]): 52.5%

Source: ChEMBL document CHEMBL4184093, “Effects of newly synthetized isoquinoline derivatives on rat uterine contractility and ROCK II activity” (Bioorg Med Chem Lett, 2018)
